Results: patent publication US10316017B2, “COT modulators and methods of use thereof” (Gilead Sciences, Inc., priority 2015, dated 2019)

Assays:
[1] = tested on: TNFα production in LPS-stimulated human monocytes; test: Cot Monocyte TNFα Cell Based Assay; settings: Homo sapiens, Monocyte, TNFα in LPS-stimulated human monocytes; read-out: EC50 TNF
Summary of the method: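 Percent-of-control values derive from TR-FRET ratios of TNFα in spun-down media, referenced to unstimulated and LPS-stimulated wells. Exposure: 1 h compound preincubation, then 50 pg/ml LPS for 4 h, both at 37 °C, with 0.5% final DMSO.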

[2] = biological target: T1, human Cot catalytic domain (30-397 amino acids) (Homo sapiens, UniProt P41279); test: High Throughput Cot Biochemical Assay (KinEASE TR-FRET); settings: Cot KinEASE TR-FRET (HTRF) biochemical assay, 400 μM ATP; read-out: IC50 HTRF
T1 construct: Purified recombinant human Cot catalytic domain (30-397 amino acids) was purchased from Cama Biosciences; purchased Cama Biosciences (so in the source)
Summary of the method: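 Phosphorylation of 1 μM XL665-STK3 peptide by 5 nM Cot catalytic domain was measured by time-resolved FRET using a europium […] antibody. ATP was 400 μM; buffer was 10 mM MOPS pH 7.0 with Mg2+ and DTT.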

T1 sequence (P41279 30-397): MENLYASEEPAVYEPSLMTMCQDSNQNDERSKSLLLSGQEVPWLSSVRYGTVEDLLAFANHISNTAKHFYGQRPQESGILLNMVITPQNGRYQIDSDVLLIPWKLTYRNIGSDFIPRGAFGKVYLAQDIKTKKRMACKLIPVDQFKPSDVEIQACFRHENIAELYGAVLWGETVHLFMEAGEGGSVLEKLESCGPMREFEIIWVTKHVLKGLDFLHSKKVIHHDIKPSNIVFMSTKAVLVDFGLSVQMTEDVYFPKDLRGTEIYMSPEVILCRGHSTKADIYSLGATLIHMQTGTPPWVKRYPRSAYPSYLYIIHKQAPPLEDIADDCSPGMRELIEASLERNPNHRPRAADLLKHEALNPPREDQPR

Row | EC50 [1] [nM] | IC50 [2] [nM] | SMILES
1 | 387 | 9 | CC(C)(CNc1c(C#N)cnc2c(Cl)cc(N[C@@H](c3ccc(F)cc3)c3cn(C4CC4)nn3)cc12)c1ccccc1 [Example 350, (S)-8-chloro-6-(((1-cyclopropyl-1H-1,2,3-triazol-4-yl)(4-fluorophenyl)methyl)amino)-4-((2-methyl-2-phenylpropyl)amino) quinoline-3-carbonitrile]
2 | 206 | 6 | [2H][C@](Nc1cc(C#N)c2ncc(C#N)c(Nc3cnc(F)c(F)c3)c2c1)(c1ccc(F)cc1)c1cn(C2CC2)nn1 [Example 351, (S)-6-(((1-cyclopropyl-1H-1,2,3-triazol-4-yl)(4-fluorophenyl)methyl-d)amino)-4-((5,6-difluoropyridin-3-yl)amino)quinoline-3,8-dicarbonitrile]
3 | 1290 | 21 | [2H][C@](Nc1cc(Cl)c2ncc(C#N)c(Nc3cnc(F)c(F)c3)c2c1)(c1ccc(F)cc1)c1c[nH]nn1 [Example 352, (S)-8-chloro-4-((5,6-difluoropyridin-3-yl)amino)-6-(((4-fluorophenyl) (1H-1,2,3-triazol-4-yl)methyl-d)amino) quinoline-3-carbonitrile]
4 | 3180 | 104 | N#Cc1cnc2c(Cl)cc(N[C@@H](c3ccc(F)cc3)c3c[nH]nn3)cc2c1Nc1cncc(F)c1 [Example 353, (S)-8-chloro-6-(((4-fluorophenyl)(1H-1,2,3-triazol-4-yl)methyl)amino)-4-((5-fluoropyridin-3-yl)amino)quinoline-3-carbonitrile]
5 | 689 | 86 | [2H]C(Nc1cc(Cl)c2ncc(C#N)c(N[C@H](CC)c3ccccc3)c2c1)(c1ccc(F)cc1)c1cn(C2CC2)cn1 (stereo partly drawn) [Example 354, 8-chloro-6-(((1-cyclopropyl-1H-imidazol-4-yl)(4-fluorophenyl)methyl-d)amino)-4-(((R)-1-phenylpropyl)amino) quinoline-3-carbonitrile]
6 | 4660 | 121 | [2H]C(Nc1cc(Cl)c2ncc(C#N)c(Nc3cnc(F)c(F)c3)c2c1)(c1ccc(F)cc1)c1cn(C2CC2)cn1 (stereo not drawn) [Example 355, 8-chloro-6-(((1-cyclopropyl-1H-imidazol-4-yl)(4-fluorophenyl)methyl-d)amino)-4-((5,6-difluoropyridin-3-yl)amino)quinoline-3-carbonitrile]
7 | 6660 | 550 | [2H][C@@](Nc1cc(Cl)c2ncc(C#N)c(NC3(c4ccccc4)CC3)c2c1)(c1cn(C2CC2)nn1)c1ccccc1Cl [Example 356]
8 | 522 | 20 | [2H][C@@](Nc1cc(Cl)c2ncc(C#N)c(N[C@H](CC)c3ccccc3)c2c1)(c1cn(C2CC2)nn1)c1ccccc1Cl [Example 357, 8-chloro-6-(((S)-(2-chlorophenyl)(1-cyclopropyl-1H-1,2,3-triazol-4-yl)methyl-d)amino)-4-(((R)-1-phenylpropyl)amino) quinoline-3-carbonitrile]
9 | 673 | 12 | [2H][C@@](Nc1cc(Cl)c2ncc(C#N)c(Nc3cnc(F)c(F)c3)c2c1)(c1cn(C2CC2)nn1)c1ccccc1Cl [Example 358, (S)-8-chloro-6-(((2-chlorophenyl)(1-cyclopropyl-1H-1,2,3-triazol-4-yl)methyl-d)amino)-4-((5,6-difluoropyridin-3-yl)amino)quinoline-3-carbonitrile]
10 | 2260 | 53 | [2H][C@](Nc1cc(Cl)c2ncc(C#N)c(Nc3cnc(F)c(F)c3)c2c1)(c1ccc(F)cc1)c1cn(C2CS(=O)(=O)C2)nn1 [Example 359, (S)-8-chloro-4-((5,6-difluoropyridin-3-yl)amino)-6-(((1-(1,1-dioxidothietan-3-yl)-1H-1,2,3-triazol-4-yl)(4-fluorophenyl)methyl-d)amino)quinoline-3-carbonitrile]
11 | 423 | 21 | [2H][C@](Nc1cc(Cl)c2ncc(C#N)c(Nc3cnc(F)c(F)c3)c2c1)(c1ccc(F)cc1)c1cn([C@@H](C)CF)nn1 [Example 360, 8-chloro-4-((5,6-difluoropyridin-3-yl)amino)-6-(((S)-(4-fluorophenyl)(1-((S)-1-fluoropropan-2-yl)-1H-1,2,3-triazol-4-yl)methyl-d)amino)quinoline-3-carbonitrile]
12 | 83 | 5 | CC(C)n1cc([C@@H](Nc2cc(Cl)c3ncc(C#N)c(NC(CC#N)c4ccccc4)c3c2)c2ccc(F)cc2)nn1 (stereo partly drawn) [Example 362, 8-chloro-4-((2-cyano-1-phenylethyl)amino)-6-(((S)-(4-fluorophenyl)(1-isopropyl-1H-1,2,3-triazol-4-yl)methyl)amino)quinoline-3-carbonitrile]
13 | > 10000 | 874 | CC(C)n1cc([C@@H](Nc2cc(Cl)c3ncc(C#N)c(N[C@H](c4ccccc4)C(F)(F)F)c3c2)c2ccc(F)cc2)nn1 [Example 363, 8-chloro-6-(((S)-(4-fluorophenyl)(1-isopropyl-1H-1,2,3-triazol-4-yl)methyl)amino)-4-(((R)-2,2,2-trifluoro-1-phenylethyl)amino)quinoline-3-carbonitrile]
14 | 631 | 48 | CC(C)n1cc([C@@H](Nc2cc(Cl)c3ncc(C#N)c(N[C@@H](c4ccccc4)C(F)(F)F)c3c2)c2ccc(F)cc2)nn1 [Example 364, 8-chloro-6-(((S)-(4-fluorophenyl)(1-isopropyl-1H-1,2,3-triazol-4-yl)methyl)amino)-4-(((S)-2,2,2-trifluoro-1-phenylethyl)amino)quinoline-3-carbonitrile]
15 | 9330 | 868 | CC[C@@H](Nc1c(C#N)cnc2c(Cl)cc(N[C@@H](c3ccc(F)cc3)c3cn(C(C)C)nn3)cc12)c1ccc(C)cc1 [Example 365, 8-chloro-6-(((S)-(4-fluorophenyl)(1-isopropyl-1H-1,2,3-triazol-4-yl)methyl)amino)-4-(((R)-1-(p-tolyl)propyl)amino)quinoline-3-carbonitrile]
16 | 1300 | 110 | CC[C@@H](Nc1c(C#N)cnc2c(Cl)cc(N[C@@H](c3ccc(F)cc3)c3cn(C(C)C)nn3)cc12)c1ccccc1C [Example 366, 8-chloro-6-(((S)-(4-fluorophenyl)(1-isopropyl-1H-1,2,3-triazol-4-yl)methyl)amino)-4-(((R)-1-(o-tolyl)propyl)amino)quinoline-3-carbonitrile]
17 | 3850 | 297 | N#Cc1cnc2c(Cl)cc(N[C@@H](c3ccc(F)cc3)c3c[nH]nn3)cc2c1Nc1ccc(F)cc1F [Example 367, (S)-8-chloro-4-((2,4-difluorophenyl)amino)-6-(((4-fluorophenyl)(1H-1,2,3-triazol-4-yl)methyl)amino)quinoline-3-carbonitrile]
18 | 1130 | 50 | N#Cc1cnc2c(Cl)cc(N[C@@H](c3ccc(F)cc3)c3c[nH]nn3)cc2c1Nc1ccc(F)c(F)c1 [Example 368, (S)-8-chloro-4-((3,4-difluorophenyl)amino)-6-(((4-fluorophenyl)(1H-1,2,3-triazol-4-yl)methyl)amino)quinoline-3-carbonitrile]
19 | 93 | 4 | [2H][C@](Nc1cc(Cl)c2ncc(C#N)c(Nc3cnc(F)c(F)c3)c2c1)(c1cccc(C#N)c1)c1cn(C2CC2)nn1 [Example 369, (S)-8-chloro-6-(((3-cyanophenyl)(1-cyclopropyl-1H-1,2,3-triazol-4-yl)methyl-d)amino)-4-((5,6-difluoropyridin-3-yl)amino)quinoline-3-carbonitrile]
20 | 417 | 5 | [2H][C@](Nc1cc(Cl)c2ncc(C#N)c(Nc3cnc(F)c(F)c3)c2c1)(c1cccc(C#N)c1)c1c[nH]nn1 [Example 370, (S)-8-chloro-6-(((3-cyanophenyl)(1H-1,2,3-triazol-4-yl)methyl-d)amino)-4-((5,6-difluoropyridin-3-yl)amino)quinoline-3-carbonitrile]
21 | 877 | 154 | [2H][C@](Nc1cc(Cl)c2ncc(C#N)c(Nc3cnc(F)c(F)c3)c2c1)(c1ccc(F)cc1)c1cn(C2(C(F)(F)F)CC2)nn1 [Example 371, (S)-8-chloro-4-((5,6-difluoropyridin-3-yl)amino)-6-(((4-fluorophenyl)(1-(1-(trifluoromethyl)cyclopropyl)-1H-1,2,3-triazol-4-yl)methyl-d)amino)quinoline-3-carbonitrile]
22 | 771 | 11 | N#Cc1cc([C@H](Nc2cc(Cl)c3ncc(C#N)c(Nc4cnc(F)c(F)c4)c3c2)c2c[nH]nn2)ccc1F [Example 372, (S)-8-chloro-6-(((3-cyano-4-fluorophenyl)(1H-1,2,3-triazol-4-yl)methyl)amino)-4-((5,6-difluoropyridin-3-yl)amino)quinoline-3-carbonitrile]
23 | 7520 | 3010 | N#Cc1cnc2c(Cl)cc(N[C@@H](c3ccc(F)cc3)c3c[nH]nn3)cc2c1Nc1cccnc1F [Example 373, (S)-8-chloro-6-(((4-fluorophenyl)(1H-1,2,3-triazol-4-yl)methyl)amino)-4-((2-fluoropyridin-3-yl)amino)quinoline-3-carbonitrile]
24 | 3840 | 161 | N#Cc1cnc2c(Cl)cc(N[C@@H](c3ccc(F)cc3)c3c[nH]nn3)cc2c1Nc1ccc(F)nc1 [Example 374, (S)-8-chloro-6-(((4-fluorophenyl)(1H-1,2,3-triazol-4-yl)methyl)amino)-4-((6-fluoropyridin-3-yl)amino)quinoline-3-carbonitrile]
